Where two headings read alike, the source gives them in different places. Where a SMILES comes first, the peptide text is derived from it. The star is where a group is joined. X1 = CC1(C)C(=CC=C2CCCC(C=CC3=[N+](CCCCCC(=O)O)c4ccccc4C3(C)C)=C2*)N(CCCCCC(=O)O)c2ccccc21
How the values were obtained:
[1] = Organ biodistribution from fluorescence of tissue lysates; conditions: female, Balb/c nude, mouse, in vivo, iv, 14 mg/kg
Protocol: (§1) Animal experiments were performed in accordance with the Guide for the Care and Use of Laboratory Animals and approved by the Institutional Animal Care and Use Committee (IACUC) of the National Center for Nanoscience and Technology (NCNST), China. Female Balb/c nude mice (6–8 weeks, 18–22 g) were purchased from Vital River Laboratory Animal Technology Co. Ltd. H460 cells were subcutaneously implanted into these mice on the right flank. Then the mice were randomly grouped (n = 3). When the tumour grew to a single aspect of about 0.5 cm, we injected the molecules 1, 2 and 3 intravenously in the same dose of 14 mg/kg in PBS solution, respectively. Fluorescence images were measured by a Maestro II in vivo imaging system (CRi) at 1, 2, 4, 6, 8, 12, 24, 48, 72, 96 and 120 h post injection. Further, tumours and other major organs (i.e., heart, liver, spleen, lung and kidney) were collected for ex vivo fluorescence imaging at 48 h post injection. The organ biodistribution of the 1, 2 and 3 was examined using H460 xenografts mice. The mice were sacrificed at 2, 4, 8, 12, 24 or 48 h post injection. Finally, all the major organs and tumour were collected, weighed, and homogenized (0.3 mL of lysis buffer per 100 mg of tissues). The homogeneous tissue solutions were obtained for fluorescence imaging by IVIS Spectrum CT. Known concentrations of compound 1, 2 or 3 are used to make the standard curve (concentration from 2.8 to 25.2 μg/mL), the “Predicted R-Squared” value of 0.99. Then we utilized this standard curve to measure the molecule content in each tissue. In addition, EJ xenograft tumour mice model was built, as above described, to validate the generality of the strategy.
Supplementary Figure 35∣ Quantitative analysis of the fluorescence intensity. In order to ensure the accuracy of the results, we added a standard solution in every tested 96 -well plate. The fluorescence property of molecules 1, 2 and 3 were identical. We take molecule 1 as example to illustrate the quantitative analysis. a. The top view of fluorescence images of a serial concentration of molecule 1 by Maestro II. The number from 1 to 11 represented 2.8, 5.6, 8.4, 11.2, 14.0, 16.8, 19.6, 22.4, 25.2, 28.0, 35.0 (μg/mL), respectively. The control group represented PBS buffer. b.
Fluorescence intensity (relative to the background signal) increase d linearly with the concentration […]
(§2) (1 picture or pasted object on this page, not shown here)
Supplementary Figure 36 ∣ Representative NIR fluorescence images of tissue lysates. The molecules 1, 2 and 3 (14 mg/kg, n = 3) on H460 tumour-bearing mice after intravenous administration in three groups. The mice were sacrificed at 2 h, 4 h, 8 h, 12 h, 24 h or 48 h post injection . […] The homogenous tissue solutions were obtained for fluorescence imaging. […]

H460 cells = assay: Flow cytometry labelling ratio of subcultured cells; assay type: cell-based, human; conditions: 50 μM, 37 °C, 2 h; for labelling ratio of H460 cells at the third generation: subcultured at 24 h interval
Protocol: Supplementary Figure 24∣Flow cytometry histograms of H460 cells treated with molecule 1, 2 and
3 (50 μM) at 37 °C for 2 h, respectively, and then subcultured for designated generations (a 24 h
interval). The untreated H460 cells were used as the control group.
as §2

[2] = Blood circulation pharmacokinetics; assay type: in vivo, mouse; conditions: Balb/c mice, IV single dose 14 mg/kg, blood 0.017–6 h, fluorescence spectroscopy, DAS2.0, mean ± s.d. n = 3
Protocol: respectively. Cell viability (%) was equal to (Asample - Ablank)/ (Acontrol - Ablank) x 100. All the experiments were performed in triplicate.
Blood circulation. To investigate the pharmacokinetics of the compound 1, 2 and 3, Balb/c mice were randomly divided into three groups (n = 3). Each group was intravenous (iv) injected with a single dose of 14 mg/kg of compou nd 1, 2 or 3. Blood samples were collected via the orbital venous plexus at 0.017, 0.08 3, 0.25, 0.5, 1, 3, 4 and 6 h post injection and collected into EDTA tubes. The supernatant of the blood samples was collected by centrifugation at 10 000 rpm for 10 min , and the content of compound 1, 2 and 3 in the supernatant w ere determined using fluorescence spectrophotometric measurement. Data for known concentrations of compound 1, 2 or 3 (concentration from 1.2 μM to 25.0 μM) were used to make the standard curve, the “Predicted R-Squared” value of 0.99.
Preparation and characteristic of liposomes. Liposomes were prepared by a thin lipid film hydration method followed by extrusion. Briefly, PC: CH: DSPE -PEG-NHS = 66: 32: 2 (molar ratio) were dissolved in a chloroform/methanol mixture (4: 1) in a round bottom flask. The lipid film was hydrated with PBS (pH 7.4) after evaporation of the chloroform/methanol solvents. […]
3 h. […] Morphologies of liposomes were measured by Tecnai G20 electron microscope.

H460 tumour-bearing mice = assay type: in vivo, mouse; conditions: IV 14 mg/kg; for retention efficiency in tumour up to 48 h post injection: integrated fluorescence in tumour normalized to 1 h, n = 3, repeated three times
Protocol: as §1
Supplementary Figure 31∣ Representative NIR fluorescence images of H460 tumour-bearing mice after intravenous administration with molecules 1, 2 and 3 (14 mg/kg, n = 3). Images were acquired at 1 h, 4 h, 12 h, 24 h 48 h, 72 h, 96 h and 120 h post injection (p.i.). The yellow circles marked the same size of the tumour region.
as §2
Supplementary Figure 32∣ Representative NIR fluorescence images o f H460 tumour-bearing mice after intravenous administrat ed with molecules 1 (14 mg/kg, n = 3) in three groups (In order to test the repeatability of the results, we chose different batches of mice to repeat trials . They were named 1-group, 2-group and 3-group, respectively.). Images were acquired at 1 h, 4 h, 12 h, 24 h 48 h and 72 h post injection (p.i.). All data were obtained by n ormalized fluorescence intensity in tumour. Data are presented as the mean ± s.d. (n= 3).

[3] = fluorescence of diluted tissue lysates, mean ± s.d. n = 3, read-out: tumour uptake / accumulation efficiency at 48 h post injection

CC[C@H](C)[C@H](NC(=O)[C@@H]1CCCN1C(=O)[C@@H](NC(=O)[C@H](C)N)C(C)C)C(=O)N[C@@H](C)C(=O)N[C@@H](CCC(N)=O)C(=O)N[C@@H](CCCCN)C(=O)N[C@@H](CC(=O)O)C(=O)N[C@@H](CCC(=O)O)C(=O)N[C@H](C(=O)N[C@@H](CC(=O)O)C(=O)N[C@@H](CCCCN)C(=O)N[C@@H](CC(C)C)C(=O)N[C@H](C(=O)N[C@@H](Cc1ccccc1)C(=O)N[C@@H](Cc1ccccc1)C(=O)N[C@@H](C)C(=O)N[C@@H](CCC(=O)O)C(=O)N[C@@H](CSC1=C(C=CC2=[N+](CCCCCC(=O)O)c3ccccc3C2(C)C)CCCC1=CC=C1N(CCCCCC(=O)O)c2ccccc2C1(C)C)C(=O)NCC(=O)O)C(C)C)C(C)C [molecule 1] (H-AVPIAQKDEVDKLVFFAEC(X1)G-OH)
tissue uptake at 48 h [1, 3]: 9.2 ± 0.5 %ID/g
tissue uptake at 48 h ([1]; fluorescence of tissue lysates, mean ± s.d. n = 3, read-out: liver retention at 48 h post injection): 4.1 ± 0.2 %ID/g
labelling ratio of H460 cells at the first generation (H460 cells; compared to untreated cells): 100%
labelling ratio of H460 cells at the third generation (H460 cells): above 16.4%
blood circulation half-life (t1/2β) [2]: 1.15 ± 0.10 h
retained tumour signal on the fifth day relative to molecules 2 and 3 (H460 tumour-bearing mice): ~2.5 fold
retention efficiency in tumour up to 48 h post injection (H460 tumour-bearing mice): approximately 22.0%
fluorescence signal retained in tumour on the fifth day (H460 tumour-bearing mice; normalized fluorescence intensity in tumour): over 16.0%

CSCC[C@H](N)C(=O)N[C@@H](CC(=O)O)C(=O)N[C@@H](CCC(=O)O)C(=O)N[C@@H](CCCCN)C(=O)N[C@@H](C)C(=O)N[C@@H](CCC(N)=O)C(=O)N[C@@H](CCCCN)C(=O)N[C@@H](CC(=O)O)C(=O)N[C@@H](CCC(=O)O)C(=O)N[C@H](C(=O)N[C@@H](CC(=O)O)C(=O)N[C@@H](CCCCN)C(=O)N[C@@H](CC(C)C)C(=O)N[C@H](C(=O)N[C@@H](Cc1ccccc1)C(=O)N[C@@H](Cc1ccccc1)C(=O)N[C@@H](C)C(=O)N[C@@H](CCC(=O)O)C(=O)N[C@@H](CSC1=C(C=CC2=[N+](CCCCCC(=O)O)c3ccccc3C2(C)C)CCCC1=CC=C1N(CCCCCC(=O)O)c2ccccc2C1(C)C)C(=O)NCC(=O)O)C(C)C)C(C)C [molecule 2] (H-MDEKAQKDEVDKLVFFAEC(X1)G-OH; N-terminus assumed)
tissue uptake at 48 h [1, 3]: 4.2 ± 0.1 %ID/g
labelling ratio of H460 cells at the third generation (H460 cells): 6.83%
retention efficiency in tumour up to 48 h post injection (H460 tumour-bearing mice): less than 10.0%

CC[C@H](C)[C@H](NC(=O)[C@@H]1CCCN1C(=O)[C@@H](NC(=O)[C@H](C)N)C(C)C)C(=O)N[C@@H](C)C(=O)N[C@@H](CCC(N)=O)C(=O)N[C@@H](CCCCN)C(=O)N[C@@H](CC(=O)O)C(=O)N[C@@H](CCC(=O)O)C(=O)N[C@H](C(=O)N[C@@H](CC(=O)O)C(=O)N[C@@H](CCC(=O)O)C(=O)N[C@@H](CSC1=C(C=CC2=[N+](CCCCCC(=O)O)c3ccccc3C2(C)C)CCCC1=CC=C1N(CCCCCC(=O)O)c2ccccc2C1(C)C)C(=O)NCC(=O)O)C(C)C [molecule 3] (H-AVPIAQKDEVDEC(X1)G-OH; N-terminus assumed)
tissue uptake at 48 h [1, 3]: 5.3 ± 0.8 %ID/g
labelling ratio of H460 cells at the third generation (H460 cells): 3.89%
blood circulation half-life (t1/2β) [2]: 1.06 ± 0.17 h
retention efficiency in tumour up to 48 h post injection (H460 tumour-bearing mice): less than 10.0%

From publication PMC6813295, “A tumour-selective cascade activatable self-detained system for drug delivery and cancer imaging” (Nature Communications, 2019)
